Laboratory results reported in PubChem BioAssay (NCI).
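These data come from cells grown in 96-well plates and exposed to compound for 48 hours at five concentrations. The concentration for full growth arrest is given as TGI.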

Tests used:
Test in all cases: NCI anticancer screen, dose series, 48 h
MOLT-4 leukemia = test system: MOLT-4 leukemia
RXF 393 renal = test system: RXF 393 renal
BT-549 breast = test system: BT-549 breast
EKVX NSCLC = test system: EKVX NSCLC
HCT-116 colon = test system: HCT-116 colon
MDA-N = test system: MDA-N
UACC-62 melanoma = test system: UACC-62 melanoma
SNB-19 CNS = test system: SNB-19 CNS
786-0 renal = test system: 786-0 renal
SW-620 colon = test system: SW-620 colon
OVCAR-5 ovarian = test system: OVCAR-5 ovarian
T-47D breast = test system: T-47D breast
KM12 colon = test system: KM12 colon
MCF7 breast = test system: MCF7 breast
IGROV1 ovarian = test system: IGROV1 ovarian
ACHN renal = test system: ACHN renal
HS 578T breast = test system: HS 578T breast
PC-3 prostate = test system: PC-3 prostate
SF-268 CNS = test system: SF-268 CNS
HOP-92 NSCLC = test system: HOP-92 NSCLC
OVCAR-3 ovarian = test system: OVCAR-3 ovarian
HCT-15 colon = test system: HCT-15 colon
A498 renal = test system: A498 renal
MDA-MB-231 breast = test system: MDA-MB-231 breast
HOP-62 NSCLC = test system: HOP-62 NSCLC
SF-295 CNS = test system: SF-295 CNS
CCRF-CEM leukemia = test system: CCRF-CEM leukemia
SK-MEL-28 melanoma = test system: SK-MEL-28 melanoma
SN12C renal = test system: SN12C renal
A549 NSCLC = test system: A549 NSCLC
NCI-H23 lung = test system: NCI-H23 lung
RPMI-8226 leukemia = test system: RPMI-8226 leukemia
UACC-257 melanoma = test system: UACC-257 melanoma
TK-10 renal = test system: TK-10 renal
HCC-2998 colon = test system: HCC-2998 colon
SF-539 CNS = test system: SF-539 CNS
SNB-75 CNS = test system: SNB-75 CNS
COLO 205 colon = test system: COLO 205 colon
MDA-MB-435 = test system: MDA-MB-435
U251 CNS = test system: U251 CNS
UO-31 renal = test system: UO-31 renal
CAKI-1 renal = test system: CAKI-1 renal
DU-145 prostate = test system: DU-145 prostate
OVCAR-4 ovarian = test system: OVCAR-4 ovarian
M14 melanoma = test system: M14 melanoma
SK-MEL-2 melanoma = test system: SK-MEL-2 melanoma
LOX IMVI melanoma = test system: LOX IMVI melanoma
NCI/ADR-RES ovarian = test system: NCI/ADR-RES ovarian
OVCAR-8 ovarian = test system: OVCAR-8 ovarian
SK-MEL-5 melanoma = test system: SK-MEL-5 melanoma
MALME-3M melanoma = test system: MALME-3M melanoma
SK-OV-3 ovarian = test system: SK-OV-3 ovarian
HT29 colon = test system: HT29 colon
K-562 leukemia = test system: K-562 leukemia
HL-60(TB) leukemia = test system: HL-60(TB) leukemia
NCI-H460 lung = test system: NCI-H460 lung
SR leukemia = test system: SR leukemia
NCI-H522 lung = test system: NCI-H522 lung
NCI-H226 lung = test system: NCI-H226 lung

Measured: TGI

Cc1cn(C2CC(n3cc(Cn4cc(Br)c(=O)[nH]c4=O)nn3)C(CO)O2)c(=O)[nH]c1=O (configuration not stated)
not listed: HT29 colon | K-562 leukemia | HL-60(TB) leukemia | NCI-H460 lung | SR leukemia | NCI-H522 lung | NCI-H226 lung
> 100 µM: all other assays above

CC1Cn2c(nc3ccccc32)NC1=O (configuration not stated)
not listed: SK-MEL-28 melanoma | SN12C renal | HCC-2998 colon | DU-145 prostate
> 100 µM: all other assays above
